Reference: patent US20120238599A1, “HETEROCYCLIC COMPOUNDS AS MEK INHIBITORS” (CHEMIZON, A DIVISION OF OPTOMAGIC CO., LTD., priority 2011, published 2012)

Experiments:
Mek1 = target: T1, Mek1 (Homo sapiens, UniProt Q02750); experiment: Mek1 kinase assay (LANCE), enzymatic activity; format: biochemical; conditions: Mek1 0.25 nM, 50 μM ATP, 2 nM inactive Erk1, 90 min at 23° C.
T1 construct: purchased Millipore
Method: A Mek1 kinase assay (LANCE, PerkinElmer) was developed for supporting compound profiling and lead optimization. […] Then the phosphorylated Erk1 was able to phosphorylate ULight™-MBP peptide (PerkinElmer). The phosphorylated peptide was detected by Europium-anti-phospho-MBP (PerkinElmer). […] After quenching the reaction, 2 nM Europium-anti-phospho-MBP was added to the reaction mixture and incubated for 60 min, followed by a detection using EnVision. The IC50 values were derived through a curve fitting using GraFit.

MEK = experiment: Cell-based mechanism assay in A375 cell line, MEK inhibition detected by reduced ERK phosphorylation (AlphaScreen SureFire); conditions: A375 cell line (melanoma), phospho-ERK levels, compounds incubated 1 hour at 37° C.
Method: To investigate whether a compound is able to inhibit the activity of MEK in cells, a mechanism-based assay using A375 cell line (melanoma) was developed. In this assay (AlphaScreen, PerkinElmer), inhibition of MEK was detected by reduced ERK phosphorylation. A375 cells were cultured in a tissue culture flask to 80% confluence in DMEM plus 10% fetal bovine serum. Cells were collected and plated onto 96 well culture plates at 3×10^4 cells/well. Plates were incubated overnight at 37° C. with 5% CO2 to allow cells to adhere. Compounds were added to the plates and incubated at 37° C. for 1 hour. After removing the medium, 100 μl of cell lysis buffer were added to each well and 4 μl of cell lysate were transferred into a 384 well white Proxiplate (PerkinElmer). The phospho-ERK levels were determined by following the standard protocol supplied with the PerkinElmer SureFire Phospho-ERK 1/2 Assay Kit®. Plates were read out by EnVision (PerkinElmer). The data were analyzed using GraphPad Prism.

T1 sequence (Q02750 whole entry, species assumed): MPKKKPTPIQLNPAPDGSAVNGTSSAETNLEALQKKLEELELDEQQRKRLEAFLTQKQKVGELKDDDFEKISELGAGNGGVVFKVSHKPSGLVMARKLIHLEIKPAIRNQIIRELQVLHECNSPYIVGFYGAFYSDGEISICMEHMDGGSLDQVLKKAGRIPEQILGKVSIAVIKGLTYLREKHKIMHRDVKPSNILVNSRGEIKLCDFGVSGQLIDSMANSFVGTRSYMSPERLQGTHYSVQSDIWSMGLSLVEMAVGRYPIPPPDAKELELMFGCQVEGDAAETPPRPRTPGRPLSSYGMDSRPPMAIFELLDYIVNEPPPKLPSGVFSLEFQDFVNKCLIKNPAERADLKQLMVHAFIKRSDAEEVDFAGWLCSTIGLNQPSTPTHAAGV

| IC50 (Mek1) [nM] | IC50 (MEK) [nM] | SMILES |
| --- | --- | --- |
| < 1000 | < 100 | Cc1nc2c(=O)n(C)c(Nc3ccc(I)cc3F)c(C(=O)NOCCO)c2o1 |
| < 5000 | < 100 | Cc1noc2c(C(=O)NOCCO)c(Nc3ccc(I)cc3F)n(C)c(=O)c12 |
| < 100 | < 100 | Cn1c(Nc2ccc(I)cc2F)c(C(=O)NOC[C@H](O)CO)c2occc2c1=O |
| < 100 | < 100 | COc1c(C(=O)NOCCO)c(Nc2ccc(I)cc2F)n(C)c(=O)c1C |
| < 1000 | < 100 | Cn1c(Nc2ccc(I)cc2F)c(C(=O)NOCCO)c2sccc2c1=O |
| < 5000 | < 100 | Cn1c(Nc2ccc(I)cc2F)c(C(=O)NCCCO)c2occc2c1=O |
| < 1000 | < 100 | Cc1coc2c(C(=O)NOCCO)c(Nc3ccc(I)cc3F)n(C)c(=O)c12 |
| < 5000 | < 5000 | Cn1c(Nc2ccc(I)cc2F)c(C(=O)NOCCO)c2scnc2c1=O |
| < 100 | < 100 | Cn1c(Nc2ccc(I)cc2Cl)c(C(=O)NOCCO)c2occc2c1=O |
| < 100 | < 100 | Cn1c(Nc2ccc(I)cc2F)c(C(=O)NOCCO)c2occc2c1=O |
